Experimental data from paper PMC5571211 (Scientific Reports, 2017).

Key:
[1] = molecular target: T1, human recombinant LTA4-H (Homo sapiens, UniProt P09960); test: LTA4 hydrolase activity, co-incubation of isolated 5-LOX and LTA4-H; type: biochemical; settings: diflapolin up to 10 µM, AUDA 10 µM, SC57461A 0.3 µM, zileuton 3 µM
T1 construct: gift of Dr. E. Proschak, Goethe University, Frankfurt
T1 sequence (P09960 2-611 limits assumed): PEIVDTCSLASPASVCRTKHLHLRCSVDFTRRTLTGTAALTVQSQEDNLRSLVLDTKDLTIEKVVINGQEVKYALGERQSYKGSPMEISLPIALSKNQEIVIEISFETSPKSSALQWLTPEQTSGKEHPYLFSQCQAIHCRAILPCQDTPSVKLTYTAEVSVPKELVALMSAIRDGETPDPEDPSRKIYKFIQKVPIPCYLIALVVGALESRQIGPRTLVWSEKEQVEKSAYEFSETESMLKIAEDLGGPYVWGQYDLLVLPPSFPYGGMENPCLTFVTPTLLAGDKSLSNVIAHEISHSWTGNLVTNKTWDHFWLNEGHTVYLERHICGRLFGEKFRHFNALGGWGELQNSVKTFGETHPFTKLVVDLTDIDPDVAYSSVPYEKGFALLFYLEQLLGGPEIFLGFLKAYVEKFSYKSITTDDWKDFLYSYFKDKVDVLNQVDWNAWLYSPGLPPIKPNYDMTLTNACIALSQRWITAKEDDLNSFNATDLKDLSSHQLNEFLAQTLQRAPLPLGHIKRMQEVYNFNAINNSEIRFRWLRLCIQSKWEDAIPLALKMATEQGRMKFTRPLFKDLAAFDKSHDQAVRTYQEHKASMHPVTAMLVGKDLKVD
Description: In order to determine the activity of LTA4-H, aliquots of human recombinant 5-LOX (0.5 µg) and 10 µg of human recombinant LTA4-H (kindly provided by Dr. E. Proschak, Goethe University, Frankfurt, Germany) were suspended in 1 mL PBS containing 1 mM EDTA and pre-incubated with test compounds or vehicle (0.1% DMSO) for 10 min on ice. The specific LTA4-H inhibitor SC57461A (0.3 µM) was used as reference drug. Subsequently, incubations were stimulated with 20 µM AA and 2 mM CaCl2 for additional 10 min at 37 °C. The reaction was stopped by 1 volume ice-cold methanol, 530 µL acidified PBS and 200 ng of PGB1 as internal standard were added and subjected to solid phase extraction. All LTB4 isomers were analyzed by HPLC as described above.

[2] = tested on: recombinant LTA4-H; set-up: method as in PMID 11805219; settings: read-out: IC50 against recombinant LTA4-H; cited from earlier work
[3] = molecular target: T2, sEH in HepG2 cells (Homo sapiens, UniProt P34913); test: 14,15-DiHETrE formation in HepG2 cells (cell-based sEH assay)
T2 construct: sEH is constitutively expressed in the human liver cancer cell line HepG2; endogenous in cells; host or cells: HepG2
T2 sequence (P34913 1-555): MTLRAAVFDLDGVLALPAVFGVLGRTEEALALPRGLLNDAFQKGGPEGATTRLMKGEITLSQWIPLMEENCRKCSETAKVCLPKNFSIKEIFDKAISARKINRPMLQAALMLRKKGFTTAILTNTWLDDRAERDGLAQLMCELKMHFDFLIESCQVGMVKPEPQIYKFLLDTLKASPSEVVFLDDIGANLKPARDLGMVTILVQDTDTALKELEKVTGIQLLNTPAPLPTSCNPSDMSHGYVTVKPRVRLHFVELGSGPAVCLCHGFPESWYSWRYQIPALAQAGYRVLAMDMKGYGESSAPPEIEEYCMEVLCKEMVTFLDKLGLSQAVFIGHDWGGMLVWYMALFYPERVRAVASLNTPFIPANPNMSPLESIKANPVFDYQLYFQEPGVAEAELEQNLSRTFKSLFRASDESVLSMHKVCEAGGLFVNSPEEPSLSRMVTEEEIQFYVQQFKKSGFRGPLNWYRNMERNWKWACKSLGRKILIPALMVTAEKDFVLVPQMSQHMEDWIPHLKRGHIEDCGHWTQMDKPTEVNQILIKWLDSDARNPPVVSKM
Description: To assay the activity of sEH in a cell-based model, HepG2 cells were harvested by trypsinization, pelleted (1,200 rpm, 5 min, 4 °C) and resuspended in PGC buffer to a final concentration of 1.5 × 10^6 cells/mL. […] Briefly, samples were acidified with four volumes of MilliQ water pH 3.5 containing PBS-HCl and subjected to Waters Sep-Pak® Vac 6cc columns (Waters, Milford, MA, USA), washed once with MilliQ and hexane, and eluted with methylformiate. The nitrogen-dried samples were dissolved in 50% methanol, and 14,15-DiHETrE formation was measured by UPLC-MS/MS using an Acquity™ UPLC system (Waters, Milford, MA, USA) and a QTRAP 5500 Mass Spectrometer (ABSciex, Darmstadt, Germany) equipped with a Turbo V™ Source and electrospray ionization (ESI). […] Ion spray voltage was set to 4000 V, the heater temperature to 500 °C, the declustering potential to 50–80 eV, the entrance potential to 10 eV, the collision cell exit potential to 10–13 eV, collision energies of 10 eV, the spray gas pressure to 40 psi, medium collision gas and the curtain gas pressure to 35 psi.

[4] = tested on: AA release (cPLA2) in neutrophils; test: [3H]-labeled arachidonic acid release in neutrophils; type: cell-based, human; settings: [3H]AA-pre-labelled neutrophils; diflapolin 1 µM, RSC-3388 10 µM
Description: Freshly isolated human neutrophils were resuspended in RPMI 1640 medium to a final cell density of 10^7 cells/mL and incubated with 0.5 µCi/mL of [^3H]-labeled arachidonic acid ([^3H]-AA), corresponding to a concentration of 5 nM of the fatty acid, for 2 hrs (37 °C, 5% CO2). Cells were washed twice to remove unincorporated [^3H]-AA and resuspended in PBS containing glucose (0.1%), fatty acid-free BSA (2 mg/mL) and CaCl2 (1 mM). […] The reaction was stopped on ice and cells were centrifuged at 1,200 rpm (10 min, 4 °C). The collected supernatants were combined with 2 mL of liquid scintillation counting solution (Rotiszint eco plus, Carl Roth, Karlsruhe, Germany) and assayed for radioactivity by scintillation counting (Micro Beta Trilux, Perkin Elmer, Waltham, MA).

[5] = tested on: monocytes; test: Acute cytotoxicity, MTT assay in monocytes; type: cell-based, human; settings: 24 or 48 hrs; diflapolin 10 µM, staurosporine 3 µM
Description: Acute cytotoxicity of the compounds was determined using freshly isolated monocytes. Cells (0.2 × 10^6) per sample were seeded in 100 µL buffer on 96-well plates and treated with the test compounds and appropriate controls for 24 or 48 hrs (37 °C, 5% CO2). After addition of MTT (5 mg/mL) for 2 h (37 °C, 5% CO2), cells were lysed by SDS treatment (10%, pH 4.5) for 16–20 hrs and formazan formation was determined by measurement of absorbance at 570 nm.

[6] = molecular target: T3, co-localization of 5-LOX with FLAP (Homo sapiens, UniProt P20292); test: Immunofluorescence microscopy of 5-LOX subcellular redistribution / co-localization with FLAP; type: cell-based; settings: human neutrophils or monocytes; diflapolin 1 µM, MK886 0.3 µM, zileuton 3 µM
T3 construct: endogenous in cells; host or cells: freshly isolated human monocytes (immunofluorescence also in neutrophils)
T3 sequence (P20292 1-161): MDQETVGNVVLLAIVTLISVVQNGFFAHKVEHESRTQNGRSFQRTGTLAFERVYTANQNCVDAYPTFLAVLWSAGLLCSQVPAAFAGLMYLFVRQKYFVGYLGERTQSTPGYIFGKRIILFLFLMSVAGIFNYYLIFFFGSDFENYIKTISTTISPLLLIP
Description: The incubations were stopped by paraformaldehyde fixation (4%, 20 min, RT) and cells were permeabilized using 100% ice-cold acetone (5 min, 4 °C). Blocking with non-immune goat serum (30 min, RT) was performed prior to overnight incubation (4 °C) with primary monoclonal-mouse-anti-5-LOX antibody (1:100 dilution, a generous gift from Dr. D. Steinhilber, Goethe University Frankfurt, Germany) and polyclonal-rabbit-anti-FLAP antibody (5 µg/mL, Abcam, Cambridge, UK). […] Cells were visualized by a Zeiss Axiovert 200 M microscope, and a Plan Neofluar × 100/1.30 Oil (DIC III) objective (Carl Zeiss, Jena, Germany) and image acquisition was performed using an AxioCam MR camera (Carl Zeiss).

[7] = molecular target: T4, 5-LOX/FLAP complex (Homo sapiens, UniProt P20292); test: Proximity ligation assay of 5-LOX/FLAP complex assembly in monocytes; type: cell-based; settings: diflapolin 1 µM, MK886 0.3 µM, zileuton 3 µM
T4 construct: endogenous in cells; host or cells: freshly isolated human monocytes (immunofluorescence also in neutrophils)
T4 sequence (P20292 1-161): T3 sequence (P20292 1-161)
Description: In situ protein interaction of 5-LOX and FLAP was analyzed by proximity ligation assay as described before[37] and referring to the manufacturer’s protocol. In brief, freshly isolated monocytes were treated as described for IF above. Overnight incubations with primary antibodies were then treated for 1 h (37 °C) with oligonucleotide-labeled specific secondary antibodies (PLA probes anti-mouse MINUS and anti-rabbit PLUS). Formation of circled DNA sequences was induced by addition of ligase and oligonucleotide mixture (30 min at 37 °C). Rolling-circle-amplification of newly generated DNA template was performed (90 min, 37 °C) including hybridization of fluorescently-labeled oligonucleotides within the formed DNA strands, resulting in visualization of protein-protein interactions recognized as magenta-stained dots. Nuclear DNA staining with DAPI and image acquisition was performed as described above. Overview images were obtained using a Plan Neofluar 40/1.30 Oil (DIC III) objective (Carl Zeiss).

[8] = tested on: 5-LOX activity in monocytes, neutrophils; test: cells; settings: Homo sapiens, read-out: IC50 5-LOX activity in cell-based assays
Description: In order to examine 5-LOX product formation in intact human neutrophils and monocytes, freshly isolated cells were resuspended in PBS buffer containing 0.1% glucose and 1 mM CaCl2 (PGC buffer) to a final cell density of 5 × 10^6 or 2 × 10^6, respectively. […] 5-LOX product formation was stopped by addition of one volume of ice-cold methanol, samples were subjected to solid phase extraction after addition of 200 ng PGB1 as internal standard and 5-LOX products were analyzed by RP-HPLC as described above.

O=C(O)CCCCCCCCCCCNC(=O)NC12CC3CC(CC(C3)C1)C2 [AUDA]
effect on LTA4-H activity (LTB4 formation) [1]: showed the same pattern as diflapolin

CN(CCCOc1ccc(Cc2ccccc2)cc1)CCC(=O)O.Cl [SC57461A, 3-[methyl[3-[4-(phenylmethyl)phenoxy]propyl]amino]propanoic acid HCl]
effect on LTA4-H activity (LTB4 formation) [1]: blocked LTB4 biosynthesis | IC50 [2]: 100 nM | effect on sEH in the cell-based sEH assay [3]: no impact

CC(C)CN(Cc1ccccc1-c1ccccc1)[C@@H]1C[C@@H](CNC(=O)/C=C/c2ccc(/C=C3\SC(=O)NC3=O)cc2)N(C(=O)c2ccccc2C(=O)c2ccc(F)cc2F)C1 [RSC-3388]
release of AA upon A23187-stimulation [4]: suppressed AA liberation

CN[C@@H]1C[C@H]2O[C@@](C)([C@@H]1OC)n1c3ccccc3c3c4c(c5c6ccccc6n2c5c31)C(=O)NC4 [staurosporine]
viability of monocytes, MTT assay [5]: strongly impaired cell viability

CC(c1cc2ccccc2s1)N(O)C(N)=O (stereo not shown) [zileuton]
co-localization of 5-LOX with FLAP [6]: neither diflapolin nor the FLAP inhibitor MK886 or the 5-LOX inhibitor zileuton prevented co-localization | 5-LOX/FLAP complex assembly (PLA) [7]: failed | effect on LTA4-H activity (LTB4 formation) [1]: reduced the formation of all LTB4 isomers | IC50 [8]: 1500 nM
